Results from US20200138921A1, “METHODS OF PREVENTING AND TREATING DISEASES CHARACTERIZED BY SYNAPTIC DYSFUNCTION AND NEURODEGENERATION INCLUDING ALZHEIMER'S DISEASE” (The Trustees of Columbia University in the City of New York, priority 2017, published 2020).

Tests used:
Format in all cases: cell-based, rat
Ube3A [1] = assay: Immunoprecipitation of HA-Ube3A and phospho-tyrosine immunoblot in B35 cells; conditions: B35 cells pre-treated with STI-571 for 1 hour prior to oAβ
Procedure: (§1) Hippocampal neuron cultures from both male and female rat embryos (E17-18) were prepared following a slightly modified version of the method of Brewer et al. 1996. Hippocampal neurons were kept in culture at 37° C. with 5% CO2 in Neurobasal medium (ThermoFisher) with B27 (ThermoFisher) supplement and Glutamax (ThermoFisher) and plated at a density of 2.5×10^5 cell/ml on dishes coated with poly-D-lysine (ThermoFisher). For the experiments, neurons were used after 14-21 days in vitro (DIV). Rat neuroblastoma B35 cells were cultured and maintained in DMEM (ThermoFisher) supplemented with 10% fetal bovine serum (FBS; Invitrogen) and Glutamax (ThermoFisher).
Cells were collected and homogenized with IP lysis buffer (ThermoFisher) supplemented with Halt protease and phosphatase inhibitor (ThermoFisher). Cell extracts were incubated overnight at 4° C. with 1.0 μg HA antibody (Cell Signaling) or mouse IgG (Cell Signaling) as a negative control Immunocomplexes were incubated with magnetic beads covalently coated with protein G (Invitrogen) on a rotator for 2 hours, at 4° C. The beads were then pelleted with a magnet and washed 3 times with 1× cell lysis buffer (Cell Signaling) supplemented with complete mini protease inhibitor mixture (Roche). The immunocomplexes were resuspended in cell lysis buffer, LDS-sample buffer (Invitrogen), […] dithiothreitol (DTT), and analyzed by Western blotting. […]

Ube3A [2] = assay: Ube3A protein degradation in B35 cells (cycloheximide chase); conditions: pre-treatment with STI
Procedure: FIG. 5A is a graph showing the quantification of Western blots of the levels of Ube3A and GAPDH (as house-keeping protein) of B35 cells treated with cycloheximide (CHX) or CHX and oAβ for 4, 8 and 16 hours. […] Graphs represent mean values and standard deviation. Significance determined by one-way ANOVA followed by Tukey Post Hoc multiple comparisons.

Ephexin-5 = assay: Western blot of Ephexin-5 in cultured primary hippocampal neurons; conditions: hippocampal neurons, Penetratin-1-linked siRNA for 24 hours
Procedure: as §1
Whole frozen mouse hippocampi, human brain specimens, and cultured cells were homogenized in RIPA buffer (ThermoFisher) supplemented with protease and phosphatase inhibitor cocktail (ThermoFisher), using a Teflon dounce homogenizer and centrifuged at 14,000 rpm for 10 minutes at 4° C. Supernatants were collected, normalized by BCA assay (ThermoFisher), and prepared for loading using sample buffer (SB) 4× (ThermoFisher) and dithiothreitol (DTT) 10× (ThermoFisher).
Cultured primary hippocampal neurons (14 DIV) were treated with 300 nM of a topoisomerase type I inhibitor, topotecan (TOP) or a vehicle control as described in Huang et al. 2012. Some cells were treated for 24 hours and some for 72 hours. All cells were harvested and whole cell lysates prepared for Western blot analysis of Ube3A and Ephixin-5.

[3] = system: primary hippocampal neurons; assay: Dendritic spine density in cultured hippocampal neurons (DiOlistic labeling); conditions: siRNA pre-treatment, oAβ 24 hours
Procedure: The protocol for diolistic labeling of neurons was adapted from Gan et al. 2000 and Gan et al. 2009. Briefly, 100 mg of tungsten particles (1.1 μm diameter; Bio-Rad) were thoroughly precipitated with 5.0 mg of lipophilic dye (DiI; ThermoFisher) and dissolved in 100 μl of methylene chloride. Dye-coated particles were shot 2-3 times into the cells using the Helios gene gun system (Bio-Rad) and left in 0.1 M PBS overnight to allow dye diffusion along neuronal processes. Cells were post-fixed with 4% paraformaldehyde (Pierce) for 1 hour to preserve staining, then mounted onto glass slides using Gel Mount (Biomeda) and stored at 4° C. in the dark.
Labeled neurons were imaged using the Laser Scanning Microscope (LSM) 510 Meta confocal microscope (Zeiss), equipped with 40×1.3 NA and 100×1.4 NA oil-immersion objectives. The NIH Image software program ImageJ was used the quantify diolistic-labeled cultured neurons. An average of 12 compressed images (20 μm thick) consisting of pyramidal neurons were quantified for each treatment. Spines were counted with NeuronStudio software in a blinded manner and spine density was represented in number of spine per μm dendritic length. Statistical analysis was performed using the statistics package GraphPad Prism.
To further test whether increasing Ube3A could rescue the effects of oAβ, cultured primary hippocampal neurons (14 DIV) were pretreated with 300 nM of TOP or control PBS. The neurons were then treated with oAβ for 24 hours, and whole cell lysates prepared for Western blot analysis, or fixed for microscopy.

RhoA-GTP = assay: Rho-GTPase activity pull-down assay in hippocampal neurons; conditions: siRNA 24 hours prior to oAβ for 8 hours
Procedure: Rho-GTPase pull-down assays were performed following the manufacturer's protocol (Cytoskeleton, Inc.). Briefly, cells were washed once with ice-cold PBS and lysed with RIPA/M-PER buffer (1:1; ThermoFisher). Lysates were incubated on ice for 5 minutes, and centrifuged (12,000 g) for 5 minutes. 30 μl was used for input and the remaining lysates were incubated with Rhotekin-RBD (RhoA) or PAK-RBD (Rac1) protein beads (25 μl) by rotating for 1 hour at 4° C. Beads were washed with ice-cold PBS (500 μl, 3×) and collected, and bound proteins were eluted with 1× sample buffer (30 μl). Input and eluted samples were then analyzed by gel electrophoresis and Western blotting using either a RhoA or Rac1-specific antibody.
To test whether increasing Ube3A could rescue the effects of oAβ, cultured primary hippocampal neurons (14 DIV) were pretreated with 300 nM of TOP or control PBS. At day 3 the cells were treated with oligomeric Aβ for 6 hours and whole cell lysates prepared for Western blot analysis of Ube3A protein levels and levels of active GTPase levels including RhoA-GTP, Rac1-GTP and Cdc42-GTP.

Cc1ccc(NC(=O)c2ccc(CN3CCN(C)CC3)cc2)cc1Nc1nccc(-c2cccnc2)n1 [STI-571]
Ube3A phosphorylation by oAβ (Ube3A [1]): complete abolishment | oAβ-induced decrease in Ube3A protein (Ube3A [2]): completely blocked

Penetratin-1-linked siRNA: Ephexin-5 siRNA (SEQ ID NO: 1 and 2) cross-linked via a Cys-Cys bond to the delivery peptide Penetratin-1 (chain 1 GUCCUUUCUCCGUGUAUGUUU; chain 2 ACAUACACGGAGAAAGGACUU; Penetratin-1 peptide attached via Cys-Cys disulfide, further chemistry not given here)
levels of Ephexin-5 (Ephexin-5): depleted | loss of dendritic spine in neurons treated with oAβ [3]: completely rescued | oAβ-induced upregulation of RhoA activity (RhoA-GTP): completely blocked
